Experimental data taken from patent US20140348901A1, “COMBINATORIAL METHODS AND COMPOSITIONS FOR TREATMENT OF MELANOMA” (The Penn State Research Foundation, priority 2004, published 2014).

How the values were obtained:
advanced stage melanoma = conditions: cited from earlier work
1205 Lu tumors = test: BAY 43-9006 on preexisting 1205 Lu tumors in nude mice; assay type: in vivo; conditions: 50 mg/kg
Procedure: (§1) Effect of BAY 43-9006 on tumor development was measured by subcutaneously injecting 5×10^6 UACC 903 or 1×10^6 1205 Lu cells into nude mice. After 6 days when a small tumor (50-100 mm^3) had developed, the mice received an intra peritoneal injection on alternate days consisting of 50 μl of vehicle (DMSO), or the drug BAY 43-9006 at concentrations of 10, 50 or 100 mg/kg body weight for UACC 903 cells and 50 mg/kg body weight for 1205 Lu cells. For studies involving pretreatment with BAY 43-9006, 50 mg/kg body weight of drug was intra peritoneally injected twice (−4 and −2 days) prior to subcutaneous injection of UACC 903 or 1205 Lu cells. The mechanism by which pharmacological inhibition of mutant ^V599EB-Raf delays tumor development was identified by comparing tumors of the same size developing in parallel. This was achieved by subcutaneous injection of 5×10^6 UACC 903 cells followed at day 6 by intra peritoneal injection every 2 days with 50 mg/kg of BAY 43-9006. […]
It is currently unknown whether targeting mutant ^V599EB-Raf in established preexisting melanoma tumors could retard tumor development, and if so, whether the mechanism is the same as that occurring when targeting ^V599EB-Raf in cells prior to tumor formation. […] Size of the developing tumors was measured using calipers on alternate days and the results are shown for UACC 903 cells in FIG. 4A and 1205 Lu cells in FIG. 15B. […]

phosphorylated Erk = test: In vivo pErk measurements in UACC 903 tumor sections (immunohistochemistry); set-up: species or system nude mice; conditions: 50 mg/kg, 9 days after start of treatment
Procedure: To quantitate changes in pErk levels in formalin-fixed, paraffin-embedded tumor sections, antigen retrieval was performed with 0.01 M citrate buffer at pH 6.0 for 20 minutes in a 95° C. water bath. Slides were cooled for 20 minutes, rinsed in PBS and then incubated in 3% H2O2 for 10 minutes to quench endogenous peroxidase activity. Next, sections were blocked with 1% BSA for 30 minutes and incubated with anti-pERK antibody at a 1:100 dilution (Cell Signaling Technologies, Beverly, Mass.) overnight at 4° C. Following rinsing in PBS, sections were incubated with biotinylated anti rabbit IgG for 1 hour, rinsed again in PBS, and incubated with peroxidase labeled streptavidine for 30 minutes. […] The average percentage of cells±SEM that stained positive for pErk was counted from a minimum of 6 different tumors with 4-6 fields counted per tumor.
To confirm that the BAY 43-9006 compound affected activity of the mutant ^V599EB-Raf signaling pathway in tumors, the percentage of cells expressing elevated levels of phosphorylated Erk was scored in tumors from mice 9 days after start of treatment with vehicle (DMSO) or vehicle containing 50 mg/kg BAY 43-9006 (FIG. 15C).

C8161 cells [1] = test: pMek and pErk levels in C8161 cells with BAY 43-9006; assay type: cell-based, human
UACC 903 cells [2] = test: Pretreatment of mice with BAY 43-9006, UACC 903 tumor development; assay type: in vivo, nude mice; conditions: 50 mg/kg i.p.
Procedure: as §1, with “43-9006. For temporal and spatial matching of control DMSO with drug treated tumors, either 1×10^6, 2.5×10^6 or 5×10^6 […] UACC 903 cells were subcutaneously injected and from day 6 treated intra peritoneally with DMSO vehicle every 2 days. Drug or vehicle treated tumors of the same size developing in parallel were harvested at days 9, 11, 13 and 15 for comparison.” for “43-9006.”

[3] = tested on: mutant ^V599EB-Raf protein signaling; test: pMek and pErk Western blot in UACC 903 cells with increasing BAY 43-9006; assay type: cell-based, human
UACC 903 tumors [4] = test: Apoptosis, cell proliferation and vessel density in size- and time-matched UACC 903 tumors treated with BAY 43-9006; assay type: in vivo, nude mice
Procedure: (§2) Effect of BAY 43-9006 on tumor development was measured by subcutaneously injecting 5×10^6 UACC 903 or 1×10^6 1205 Lu cells into nude mice. After 6 days when a small tumor (50-100 mm^3) had developed, the mice received an intra peritoneal injection on alternate days consisting of 50 μl of vehicle (DMSO), or the drug BAY 43-9006 at concentrations of 10, 50 or 100 mg/kg body weight for UACC 903 cells and 50 mg/kg body weight for 1205 Lu cells. For studies involving pretreatment with BAY 43-9006, 50 mg/kg body weight of drug was intra peritoneally injected twice (−4 and −2 days) prior to subcutaneous injection of UACC 903 or 1205 Lu cells. The mechanism by which pharmacological inhibition of mutant ^V599EB-Raf delays tumor development was identified by comparing tumors of the same size developing in parallel. This was achieved by subcutaneous injection of 5×10^6 UACC 903 cells followed at day 6 by intra peritoneal injection every 2 days with 50 mg/kg of BAY 43-9006. For temporal and spatial matching of control DMSO with drug treated tumors, either 1×10^6, 2.5×10^6 or 5×10^6 […] UACC 903 cells were subcutaneously injected and from day 6 treated intra peritoneally with DMSO vehicle every 2 days. Drug or vehicle treated tumors of the same size developing in parallel were harvested at days 9, 11, 13 and 15 for comparison. At each time point, tumors from mice treated with vehicle or drug were harvested for analysis of cell proliferation, apoptosis and vascular development, as described previously (Stahl J M et al. Cancer Res. 64: 7002-10 (2004), Stahl J M et al. Cancer Res. 63: 2881-90 (2003)).
Apoptosis measurements on formalin-fixed, paraffin-embedded tumor sections were undertaken using the TUNEL TMR Red Apoptosis kit from Roche (Manheim, Germany), as described previously (Stahl J M et al. Cancer Res. 64: 7002-10 (2004), Stahl J M et al. Cancer Res. 63: 2881-90 (2003)). Cell Proliferation rates in formalin-fixed tumor sections were measured using the RPN 20 cell proliferation kit (Amersham Biosciences, Piscataway, N.J.) that utilizes BrdU incorporation and immunocytochemistry. […] The number of BrdU stained cells were scored as the percentage of total cells of tumors treated with BAY 43-9006 or vehicle (DMSO). Quantification of vessels density using a purified rat anti-mouse CD31 (PECAM-1) monoclonal antibody (Pharmingen, San Diego, Calif.) has been described previously (Stahl J M et al. Cancer Res. 64: 7002-10 (2004), Stahl J M et al. Cancer Res. 63: 2881-90 (2003)). The proportional area of the tumors occupied by the vessels over the total area was calculated using the IP Lab imaging software program. For all tumor analyses, a minimum of 6 different tumors with 4-6 fields per tumor was analyzed and results represented as the average±SEM.

VEGF = VEGF secretion ELISA, UACC 903 or 1205 Lu cells; assay type: cell-based, human; conditions: BAY 43-9006 5, 10, 15 uM; UACC 903 and 1205 Lu
Procedure: To determine the amount of VEGF secreted by cells following siRNA-mediated knockdown of B-Raf protein or after treatment with BAY 43-9006, the human VEGF Quantikine kit (DVE00) was used (R&D Systems Inc., Minneapolis, Minn.). UACC 903 or 1205 Lu cells (5×10^5) nucleofected with the various siRNA were plated in 60 mm petri dishes and 24 hours later media replaced with DMEM containing 2% FBS. Following an additional 24 hours, media was again replaced and conditioned media for ELISA analysis was collected 24 and 48 hours later. For BAY 43-9006 studies. 3×10^5 UACC 903 or 1205 Lu cells were plated into 60 mm petri dishes and 24 hours later media was changed to DMEM containing 2% FBS. After an additional 24 hours, media was replaced with DMEM supplemented with 2% FBS alone or in combination with BAY 43-9006 (5, 10, 15 uM) or DMSO vehicle. After 12 or 24 hours, conditioned media was collected for ELISA analysis. The media was cleared by centrifugation at 14,000 rpm (4° C.) for 5 minutes and stored at −80° C. VEGF ELISA analysis was performed in triplicate on duplicate experiments according to the manufacturer's instructions.

UACC 903 cells [5] = test: BAY 43-9006 growth inhibition/IC-50 of UACC 903 melanoma cells (SRB); assay type: cell-based, human; conditions: 72 hours; read-out: IC-50, concentration that reduced UACC 903 cell survival by half
Procedure: To measure the growth inhibitory effects or IC-50 of BAY 43-9006 on UACC 903 cells, 5×10^3 cells/well were plated into 96-well plates. Following 24 hours, varying concentrations of BAY 43-9006 (0, 0.02, 0.1, 0.4, 1.6, 6.3, 25, or 100 uM) was added to duplicate 8-strip wells in the plate. After 72 hours of growth at 37° C. in a 5% CO2 humidified atmosphere, media was discarded and cells were fixed in 10% trichloroacetic acid. Surviving cells at each concentrations of the drug were calculated using the SRB binding assay (Stahl J M et al. Cancer Res. 63: 2881-90 (2003)).

UACC 903 tumors [6] = test: BAY 43-9006 on preexisting UACC 903 tumors in nude mice; assay type: in vivo
Procedure: as §2
(§3) It is currently unknown whether targeting mutant ^V599EB-Raf in established preexisting melanoma tumors could retard tumor development, and if so, whether the mechanism is the same as that occurring when targeting ^V599EB-Raf in cells prior to tumor formation. Therefore, we next examined whether pharmacologically targeting B-Raf in preexisting melanoma tumors would inhibit tumor development by a similar mechanism. Five million UACC 903 cells, one million 1205 Lu cells or five million C8161 cells were subcutaneously injected into 4- to 6-week old female nude mice. On day 6, vehicle (DMSO) or BAY 43-9006 compound dissolved in vehicle (10, 50 or 100 mg/kg) was administered to mice via intra peritoneal injection every 48 hours. A 48 hour time period between drug administrations was chosen since inhibitory effects on the MAP kinase signaling pathway in UACC 903, 1205 Lu and C8161 cells persisted for at least that period (data not shown). Size of the developing tumors was measured using calipers on alternate days and the results are shown for UACC 903 cells in FIG. 4A and 1205 Lu cells in FIG. 15B. While all concentrations of the BAY 43-9006 compound slowed UACC 903 tumor development, only concentrations ≧50 mg/kg caused tumor development to plateau 7 days following the start of treatment (FIG. 4B).

1205 Lu cells = test: Pretreatment of mice with BAY 43-9006, 1205 Lu tumor development; assay type: in vivo, nude mice; conditions: 50 mg/kg i.p., 1205 Lu (not shown)
Procedure: as §1, with “43-9006. For temporal and spatial matching of control DMSO with drug treated tumors, either 1×10^6, 2.5×10^6 or 5×10^6 […] UACC 903 cells were subcutaneously injected and from day 6 treated intra peritoneally with DMSO vehicle every 2 days. Drug or vehicle treated tumors of the same size developing in parallel were harvested at days 9, 11, 13 and 15 for comparison.” for “43-9006.”

C8161 cells [7] = test: BAY 43-9006 on preexisting C8161 tumors in nude mice; assay type: in vivo; conditions: C8161 (data not shown)
Excerpt: as §3

[8] = tested on: wild type or mutant ^V599EB-Raf protein; test: pMek and pErk in HEK 293T cells expressing HA-tagged wild type or mutant B-Raf exposed to BAY 43-9006; assay type: cell-based, human; conditions: 5 uM, 2 hours
Procedure: The BAY 43-9006 compound used for these studies was synthesized as described in ref (Bankston D et al. Organic Process Res Dev. 6: 777-81 (2002)). To evaluate the inhibitory effects of BAY 43-9006 on wild type and mutant B-Raf, HEK 293T cells were transfected with HA-tagged wild type B-RAF, mutant ^V599EB-RAF or vector (pcDNA3) using Calcium Phosphate as described previously (Robertson G P et al. Proc Natl Acad Sci USA. 95: 9418-23 (1998)). Following transfection (72 hours) media was replaced with DMEM media supplemented with 10% FBS and 5 uM BAY 43-9006 or DMSO vehicle. Two hours later, protein lysates were collected for Western blot analysis. Levels of phosphorylated Mek and Erk were quantified from 3 independent blots and fold differences under different conditions were estimated after normalizing against an Erk 2 loading control.

## CNC(=O)c1cc(Oc2ccc(NC(=O)Nc3ccc(Cl)c(C(F)(F)F)c3)cc2)ccn1 [BAY 43-9006]
Advanced stage melanoma; advanced stage melanoma patients, oral
  Efficacy of monotherapy: relatively ineffective
Advanced stage melanoma; in combination with paclitaxel and carboplatinum
  Response rate in patients: 50%
1205 Lu tumors
  Plateau in tumor size, days: 17-to-31 days
Phosphorylated Erk
  Fold fewer pErk positive cells than vehicle treated tumors: ~3 fold
C8161 cells [1]
  pMek and pErk levels: inhibited
UACC 903 cells [2]
  Tumor development after pretreatment: significantly inhibited
[3]; UACC 903 and 1205 Lu cell lines
  Persistence of inhibitory effects on MAP kinase signaling: 2 to 3 days
[3]; UACC 903 cells, 2 hours, increasing concentrations
  Levels of phosphorylated (active) Mek and Erk: dose responsive manner
UACC 903 tumors [4]; 50 mg/kg
  Tumor area occupied by apoptosis by day 15: up to 25%
  Vessel development at day 9 vs vehicle: statistically significant difference
UACC 903 tumors [4]; 50 mg/kg (data not shown)
  Tumor area undergoing apoptosis by day 20: ~50%
UACC 903 tumors [4]; preexisting tumors, 50 mg/kg
  Decrease in percentage of proliferating cells: 32-57%
VEGF
  VEGF secretion: dose dependent manner
UACC 903 cells [5]
  IC50: 5 to 6 µM
UACC 903 tumors [6]; 10 mg/kg
  Tumor size on day 27: > 2,400 mm^3
UACC 903 tumors [6]; 10 mg/kg i.p. every 48 hours
  Delay of tumor development: ~1 week
UACC 903 tumors [6]; UACC 903, after a week of drug treatment
  Increase in tumor sizes from days 13-to-31: no statistically significant increase
UACC 903 tumors [6]; concentrations ≧50 mg/kg
  Tumor development plateau, days following the start of treatment: 7 days
UACC 903 tumors [6]; i.p. every 2 days from day 6
  Concentrations that reduce the tumorigenic potential of melanoma cells containing mutant ^V599EB-Raf: ≥ 50 mg/kg
1205 Lu cells
  Tumor development after pretreatment: significantly inhibited
C8161 cells [7]
  Kinetics of tumor formation: no difference
[8]
  Fold reduction of phosphorylated Erk: 3-4 fold
  Fold reduction of phosphorylated Mek: 5-6 fold
